In ChEMBL document CHEMBL4033741, “Dioscin suppresses TGF-β1-induced epithelial-mesenchymal transition and suppresses A549 lung cancer migration and invasion” (2017):
The source made the active and inactive calls. No cut-off for these calls is given here.

How the values were obtained:
[1] = test system: A549; test: Inhibition of TGF-beta1-induced cell invasion in human A549 cells at 2.5 to 3 uM measured after 48 hrs by Matrigel invasion assay; type: functional, cell-based
[2] = test system: A549; test: Antiproliferative activity against human A549 cells assessed as cell survival rate at 0.5 uM incubated for 24 hrs by CCK8 assay; type: functional; details: A549, 24 h, read-out: Survival
[3] = test system: A549; test: Antiproliferative activity against human A549 cells assessed as cell survival rate at 1 uM incubated for 24 hrs by CCK8 assay; type: functional; details: A549, 24 h, read-out: Survival
[4] = test system: A549; test: Antiproliferative activity against human A549 cells assessed as cell survival rate at 2 uM incubated for 24 hrs by CCK8 assay; type: functional; details: A549, 24 h, read-out: Survival
[5] = test system: A549; test: Antiproliferative activity against human A549 cells assessed as cell survival rate at 2.5 uM incubated for 24 hrs by CCK8 assay; type: functional; details: A549, 24 h, read-out: Survival
[6] = test system: A549; test: Antiproliferative activity against human A549 cells assessed as cell survival rate at 3 uM incubated for 24 hrs by CCK8 assay; type: functional; details: A549, 24 h, read-out: Survival
[7] = test system: A549; test: Antiproliferative activity against human A549 cells assessed as inhibition of cell growth at 4 uM incubated for 24 to 48 hrs by CCK8 assay; type: functional, cell-based
[8] = test system: A549; test: Inhibition of TGF-beta1-induced epithelial-mesenchymal transition in human A549 cells assessed as suppression of cell elongation and spindle like shapes pre-incubated for 2 hrs at 2.5 to 3 uM for 2 hrs followed by TGF-beta1 stimulation for 24 hrs; type: functional, cell-based
[9] = test system: A549; test: Inhibition of TGF-beta1-induced epithelial-mesenchymal transition in human A549 cells assessed as increase in E-cadherin expression pre-incubated for 2 hrs at 2.5 to 3 uM for 2 hrs followed by TGF-beta1 stimulation for 24 hrs by Western blot method; type: functional, cell-based
[10] = test system: A549; test: Inhibition of TGF-beta1-induced epithelial-mesenchymal transition in human A549 cells assessed as decrease in N-cadherin expression pre-incubated for 2 hrs at 2.5 to 3 uM for 2 hrs followed by TGF-beta1 stimulation for 24 hrs by Western blot method; type: functional, cell-based
[11] = test system: A549; test: Inhibition of TGF-beta1-induced epithelial-mesenchymal transition in human A549 cells assessed as increase in E-cadherin gene expression at 2.5 to 3 uM for 2 hrs followed by TGF-beta1 stimulation for 24 hrs by qRT-PCR method; type: functional, cell-based
[12] = test system: A549; test: Inhibition of TGF-beta1-induced epithelial-mesenchymal transition in human A549 cells assessed as reduction in N-cadherin gene expression at 2.5 to 3 uM for 2 hrs followed by TGF-beta1 stimulation for 24 hrs by qRT-PCR method; type: functional, cell-based
[13] = test system: A549; test: Inhibition of TGF-beta1-induced epithelial-mesenchymal transition in human A549 cells assessed as reduction in SNAI2 gene expression at 2.5 to 3 uM for 2 hrs followed by TGF-beta1 stimulation for 24 hrs by qRT-PCR method; type: functional, cell-based
[14] = test system: A549; test: Inhibition of TGF-beta1-induced epithelial-mesenchymal transition in human A549 cells assessed as reduction in vimentin gene expression at 2.5 to 3 uM for 2 hrs followed by TGF-beta1 stimulation for 24 hrs by qRT-PCR method; type: functional, cell-based
[15] = test system: A549; test: Inhibition of TGF-beta1-induced epithelial-mesenchymal transition in human A549 cells assessed as reduction in Smad2 gene expression at 2.5 to 3 uM for 2 hrs followed by TGF-beta1 stimulation for 24 hrs by qRT-PCR method; type: functional, cell-based
[16] = test system: A549; test: Inhibition of TGF-beta1-induced epithelial-mesenchymal transition in human A549 cells assessed as reduction in TGFbeta gene expression at 2.5 to 3 uM for 2 hrs followed by TGF-beta1 stimulation for 24 hrs by qRT-PCR method; type: functional, cell-based
[17] = test system: A549; test: Inhibition of TGF-beta1-induced epithelial-mesenchymal transition in human A549 cells assessed as reduction in TGFbetaR1 gene expression at 2.5 to 3 uM for 2 hrs followed by TGF-beta1 stimulation for 24 hrs by qRT-PCR method; type: functional, cell-based
[18] = test system: A549; test: Inhibition of TGF-beta1-induced epithelial-mesenchymal transition in human A549 cells assessed as reduction in Snail gene expression at 2.5 to 3 uM for 2 hrs followed by TGF-beta1 stimulation for 24 hrs by qRT-PCR method; type: functional, cell-based
[19] = test system: A549; test: Inhibition of TGF-beta1-induced epithelial-mesenchymal transition in human A549 cells assessed as reduction in Snail protein expression at 2.5 to 3 uM for 2 hrs followed by TGF-beta1 stimulation for 24 hrs by Western blot method; type: functional, cell-based
[20] = test system: A549; test: Inhibition of TGF-beta1-induced cell migration in human A549 cells at 2.5 to 3 uM treated along with TGF-beta1 stimulation following cell layer cell layer scratching measured after 24 hrs; type: functional, cell-based
[21] = test system: A549; test: Inhibition of TGF-beta1-induced MMP2 gene expression in human A549 cells at 2.5 to 3 uM for 2 hrs followed by TGF-beta1 stimulation for 24 hrs by qRT-PCR method; type: functional, cell-based
[22] = test system: A549; test: Inhibition of TGF-beta1-induced MMP9 gene expression in human A549 cells at 2.5 to 3 uM for 2 hrs followed by TGF-beta1 stimulation for 24 hrs by qRT-PCR method; type: functional, cell-based
[23] = target: 72 kDa type IV collagenase (Homo sapiens) (UniProt P08253); test: Inhibition of TGF-beta1-induced MMP2 activity in human A549 cells at 2.5 to 3 uM for 2 hrs followed by TGF-beta1 stimulation for 24 hrs by gelatin zymography; type: cell-based
[24] = target: Matrix metalloproteinase-9 (Homo sapiens) (UniProt P14780); test: Inhibition of TGF-beta1-induced MMP9 activity in human A549 cells at 2.5 to 3 uM for 2 hrs followed by TGF-beta1 stimulation for 24 hrs by gelatin zymography; type: cell-based
[25] = target: Mothers against decapentaplegic homolog 2 (Homo sapiens) (UniProt Q15796); test: Inhibition of TGF-beta1-induced Smad2 phosphorylation in human A549 cells at 2.5 to 3 uM for 2 hrs followed by TGF-beta1 stimulation for 24 hrs by Western blot method; type: cell-based
[26] = target: MAP kinase p38 (Homo sapiens) (UniProt O15264+Q15759+Q16539+P53778); test: Inhibition of TGF-beta1-induced p38 phosphorylation in human A549 cells at 2.5 to 3 uM for 2 hrs followed by TGF-beta1 stimulation for 24 hrs by Western blot method; type: cell-based

Sequence of Mothers against decapentaplegic homolog 2 (Homo sapiens) (Q15796 whole entry): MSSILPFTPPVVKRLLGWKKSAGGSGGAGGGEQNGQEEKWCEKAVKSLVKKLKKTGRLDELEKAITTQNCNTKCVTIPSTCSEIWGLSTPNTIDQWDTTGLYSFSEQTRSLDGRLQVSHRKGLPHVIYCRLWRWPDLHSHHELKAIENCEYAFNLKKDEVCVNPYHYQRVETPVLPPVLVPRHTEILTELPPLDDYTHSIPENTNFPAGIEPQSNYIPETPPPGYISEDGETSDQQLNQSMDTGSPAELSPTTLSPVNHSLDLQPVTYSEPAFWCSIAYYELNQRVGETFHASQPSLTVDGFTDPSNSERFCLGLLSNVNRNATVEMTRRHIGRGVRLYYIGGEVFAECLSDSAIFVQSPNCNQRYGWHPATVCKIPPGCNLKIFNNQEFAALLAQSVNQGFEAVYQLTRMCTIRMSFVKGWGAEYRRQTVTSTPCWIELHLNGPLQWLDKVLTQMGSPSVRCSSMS
Sequence of 72 kDa type IV collagenase (Homo sapiens) (P08253 110-660 limits assumed): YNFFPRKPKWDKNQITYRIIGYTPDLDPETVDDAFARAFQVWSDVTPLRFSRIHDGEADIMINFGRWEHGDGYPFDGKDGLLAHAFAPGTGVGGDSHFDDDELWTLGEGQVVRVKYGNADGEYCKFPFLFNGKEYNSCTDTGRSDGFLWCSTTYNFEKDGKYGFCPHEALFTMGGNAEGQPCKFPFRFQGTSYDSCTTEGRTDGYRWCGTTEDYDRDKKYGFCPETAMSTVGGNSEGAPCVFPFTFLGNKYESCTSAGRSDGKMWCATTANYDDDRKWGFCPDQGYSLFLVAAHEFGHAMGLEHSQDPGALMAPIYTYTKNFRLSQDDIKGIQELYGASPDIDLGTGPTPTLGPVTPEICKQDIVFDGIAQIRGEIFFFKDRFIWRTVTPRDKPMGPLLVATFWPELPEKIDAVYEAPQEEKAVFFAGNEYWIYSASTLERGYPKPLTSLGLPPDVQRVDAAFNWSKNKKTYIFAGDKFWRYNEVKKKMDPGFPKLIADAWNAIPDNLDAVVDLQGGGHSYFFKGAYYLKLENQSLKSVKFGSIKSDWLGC
Sequence of Matrix metalloproteinase-9 (Homo sapiens) (P14780 whole entry): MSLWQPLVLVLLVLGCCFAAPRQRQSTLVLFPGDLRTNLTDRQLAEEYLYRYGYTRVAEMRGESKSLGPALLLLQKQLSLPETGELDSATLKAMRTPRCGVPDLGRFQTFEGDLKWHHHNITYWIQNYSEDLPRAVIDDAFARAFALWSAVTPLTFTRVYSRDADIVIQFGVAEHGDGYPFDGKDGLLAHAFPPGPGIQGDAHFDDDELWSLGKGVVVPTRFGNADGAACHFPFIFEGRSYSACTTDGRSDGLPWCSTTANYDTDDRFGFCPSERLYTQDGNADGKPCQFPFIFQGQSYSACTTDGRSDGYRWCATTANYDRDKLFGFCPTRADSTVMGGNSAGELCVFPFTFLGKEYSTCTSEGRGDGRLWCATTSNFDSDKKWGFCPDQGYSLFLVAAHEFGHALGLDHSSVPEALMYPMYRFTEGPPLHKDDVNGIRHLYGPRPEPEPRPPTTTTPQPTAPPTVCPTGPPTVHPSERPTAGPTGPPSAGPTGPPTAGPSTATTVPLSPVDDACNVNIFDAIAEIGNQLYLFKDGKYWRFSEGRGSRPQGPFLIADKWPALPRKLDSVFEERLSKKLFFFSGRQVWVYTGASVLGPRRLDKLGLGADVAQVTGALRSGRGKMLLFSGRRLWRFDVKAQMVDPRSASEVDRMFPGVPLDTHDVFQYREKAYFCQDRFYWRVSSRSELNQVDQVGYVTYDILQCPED

Q: What does the source list for `C[C@@H]1CC[C@@]2(OC1)O[C@H]1C[C@H]3[C@@H]4CC=C5C[C@@H](O[C@@H]6O[C@H](CO)[C@@H](O[C@@H]7O[C@@H](C)[C@H](O)[C@@H](O)[C@H]7O)[C@H](O)[C@H]6O[C@@H]6O[C@@H](C)[C@H](O)[C@@H](O)[C@H]6O)CC[C@]5(C)[C@H]4CC[C@]3(C)[C@H]1[C@@H]2C` [DIOSCIN]?
A: inhibition [1]: Active; viability at 0.5 µM [2]: > 80%; viability at 1 µM [3]: > 80%; viability at 2 µM [4]: > 80%; viability at 2.5 µM [5]: > 80%; viability at 3 µM [6]: > 80%; growth inhibition (GI) [7]: Active; inhibition [8]: Active; inhibition [9]: Active; inhibition [10]: Active; inhibition [11]: Dose-dependent effect; inhibition [12]: Dose-dependent effect; inhibition [13]: Dose-dependent effect; inhibition [14]: Dose-dependent effect; inhibition [15]: Dose-dependent effect; inhibition [16]: Dose-dependent effect; inhibition [17]: Dose-dependent effect; inhibition [18]: Dose-dependent effect; inhibition [19]: Dose-dependent effect; inhibition [20]: Dose-dependent effect; inhibition [21]: Dose-dependent effect; inhibition [22]: Dose-dependent effect; inhibition [23]: Active; inhibition [24]: Active; inhibition [25]: Dose-dependent effect; inhibition [26]: Active
